Laboratory results taken from US20220193076A1, “METHODS OF TREATING BREAST CANCER WITH TUCATINIB” (Seagen Inc., priority 2019, published 2022).

Key:
[1] = Example 1: renal function (iohexol aGFR, serum creatinine, urine albumin); format: in vivo, human
CYP3A4 = CYP3A4 (Homo sapiens, UniProt P08684); test: Example 2 Part D: effect of tucatinib on PK of substrate probe midazolam; details: steady-state tucatinib in combination with tolbutamide/midazolam vs tolbutamide/midazolam alone
Experimental: (§1) A Phase 1, open-label, fixed-sequence, 5-part, drug-drug interaction study of tucatinib was conducted to evaluate the effects of CYP3A4 and CYP2C8 inhibition and induction on the pharmacokinetics of tucatinib and to evaluate the effects of tucatinib on the pharmacokinetics of substrates of CYP3A4, CYP2C8, CYP2C9, and P-glycoprotein in healthy male and female subjects.
(§2) Part B evaluates the effect of rifampin, a strong inducer of CYP3A4 and CYP2C8, on the PK of tucatinib. […] Part E evaluates the effect of tucatinib on the PK of a substrate probe of the transporter P-gp (digoxin). […] For Parts A, B, and C, tucatinib is given as a single oral dose because evaluating plasma exposures after a single dose of tucatinib is expected to provide an appropriate assessment of the impact of the probe drugs on tucatinib PK. In Parts D and E, tucatinib is given as a multiple-dosing regimen in order to examine its effects on probe drugs at steady state, at which maximal inhibition of CYP2C8, CYP2C9, CYP3A4, and P-gp by tucatinib should be achieved.
(§3) Secondary objectives of the study included: (1) assessing the safety and tolerability of tucatinib when administered alone and when co-administered with substrate probes of CYP2C8, CYP2C9, and CYP3A4; and (2) assessing the single-dose PK of tucatinib and assessing the multiple-dose, steady-state PK of tucatinib alone and in the presence of substrate probes of CYP2C8, CYP2C9, and CYP3A4 in healthy subjects.
(§4) They were discharged on Day 14 after completion of the in-patient assessments.
(§5) On Day 1, each subject received a single oral dose of 0.5 mg of repaglinide. […] From Day 4 to Day 13, each subject received oral doses of 300 mg of tucatinib, twice daily (BID). On Day 11, each subject received a single oral dose of repaglinide. […] Tucatinib was provided as 150-mg tablets (2 tablets for the 300-mg dose), repaglinide was provided as 0.5-mg tablets, olbutamide was provided as 500-mg tablets, and midazolam was provided as a syrup (2 mg/mL; 1 mL syrup for the 2-mg dose). Tucatinib, repaglinide, olbutamide and midazolam were administered before meals preceded by an at least 8-hour overnight fast.
(§6) Other noncompartmental PK parameters may be reported. Additionally, blood samples for determination of plasma concentrations of tucatinib and ONT-993 were collected at the time points indicated in FIG. 8. […] A single genotyping blood sample was collected to assess possible effect of CYP polymorphisms or other genetic polymorphisms on the magnitude of drug interactions of tucatinib with probe drugs and substrates.

CYP2C9 = CYP2C9 (Homo sapiens, UniProt P11712); test: Example 2 Part D: effect of tucatinib on PK of substrate probe tolbutamide; details: tolbutamide/midazolam in combination with steady-state tucatinib vs tolbutamide/midazolam alone
Experimental: as §1, §2, §3, §4
as §5, with “Tucatinib, repaglinide, olbutamide and midazolam were administered before meals preceded by an at least 8-hour overnight fast.” left out

P-gp = P-gp (Homo sapiens, UniProt P08183); test: Example 2 Part E: effect of tucatinib on PK of substrate probe digoxin; details: digoxin in combination with steady-state tucatinib vs digoxin alone
Experimental: as §1, §2
A single genotyping blood sample was collected to assess possible effect of CYP polymorphisms or other genetic polymorphisms on the magnitude of drug interactions of tucatinib with probe drugs and substrates.

CYP2C8 = biological target: T1, CYP2C8 (Homo sapiens, UniProt P10632); test: Example 2 Part D: effect of tucatinib on PK of substrate probe repaglinide; format: in vivo; set-up: endogenous in cells; host or cells: healthy human subjects, in vivo; details: repaglinide in combination with steady-state tucatinib vs repaglinide alone
T1 sequence (P10632 1-490): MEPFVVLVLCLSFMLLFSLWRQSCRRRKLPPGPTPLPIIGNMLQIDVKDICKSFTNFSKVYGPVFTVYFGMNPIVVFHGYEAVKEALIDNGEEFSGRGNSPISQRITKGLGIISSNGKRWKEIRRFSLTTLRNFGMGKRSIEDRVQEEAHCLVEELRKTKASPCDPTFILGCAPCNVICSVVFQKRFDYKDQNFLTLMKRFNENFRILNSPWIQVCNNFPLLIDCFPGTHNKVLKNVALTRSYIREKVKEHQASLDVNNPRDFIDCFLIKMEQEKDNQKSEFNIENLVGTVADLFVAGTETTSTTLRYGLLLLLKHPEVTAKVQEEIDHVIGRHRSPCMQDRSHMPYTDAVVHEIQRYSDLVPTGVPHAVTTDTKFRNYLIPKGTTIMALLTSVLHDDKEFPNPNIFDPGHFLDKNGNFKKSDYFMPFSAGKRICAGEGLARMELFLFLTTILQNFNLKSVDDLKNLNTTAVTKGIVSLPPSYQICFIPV
Experimental: as §1, §2, §3, §4, §5, §6

MATE1/2K [2] = test: clinical; details: both, human, plasma
MATE1/2K [3] = test: Phase 1 drug-drug interaction study: effect of tucatinib on metformin pharmacokinetics (Example 1)
[4] = coadministration of tucatinib with metformin compared to metformin alone
[5] = Metformin with tucatinib (Test), n = 17

Sequence of CYP2C9 (P11712 whole entry): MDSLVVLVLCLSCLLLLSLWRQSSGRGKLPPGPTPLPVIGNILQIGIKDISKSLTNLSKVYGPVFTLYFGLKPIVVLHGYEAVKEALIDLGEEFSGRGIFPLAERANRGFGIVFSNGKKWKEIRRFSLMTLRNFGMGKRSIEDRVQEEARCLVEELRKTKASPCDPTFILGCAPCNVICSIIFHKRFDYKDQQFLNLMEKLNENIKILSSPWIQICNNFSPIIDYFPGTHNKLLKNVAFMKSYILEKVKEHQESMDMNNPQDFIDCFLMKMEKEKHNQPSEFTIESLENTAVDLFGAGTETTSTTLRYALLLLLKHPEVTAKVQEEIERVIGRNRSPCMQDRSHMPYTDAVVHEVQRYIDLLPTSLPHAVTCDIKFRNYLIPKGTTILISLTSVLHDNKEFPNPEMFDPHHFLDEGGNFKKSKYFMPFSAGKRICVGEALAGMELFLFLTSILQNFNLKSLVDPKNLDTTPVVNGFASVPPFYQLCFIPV
Sequence of P-gp (P08183 whole entry): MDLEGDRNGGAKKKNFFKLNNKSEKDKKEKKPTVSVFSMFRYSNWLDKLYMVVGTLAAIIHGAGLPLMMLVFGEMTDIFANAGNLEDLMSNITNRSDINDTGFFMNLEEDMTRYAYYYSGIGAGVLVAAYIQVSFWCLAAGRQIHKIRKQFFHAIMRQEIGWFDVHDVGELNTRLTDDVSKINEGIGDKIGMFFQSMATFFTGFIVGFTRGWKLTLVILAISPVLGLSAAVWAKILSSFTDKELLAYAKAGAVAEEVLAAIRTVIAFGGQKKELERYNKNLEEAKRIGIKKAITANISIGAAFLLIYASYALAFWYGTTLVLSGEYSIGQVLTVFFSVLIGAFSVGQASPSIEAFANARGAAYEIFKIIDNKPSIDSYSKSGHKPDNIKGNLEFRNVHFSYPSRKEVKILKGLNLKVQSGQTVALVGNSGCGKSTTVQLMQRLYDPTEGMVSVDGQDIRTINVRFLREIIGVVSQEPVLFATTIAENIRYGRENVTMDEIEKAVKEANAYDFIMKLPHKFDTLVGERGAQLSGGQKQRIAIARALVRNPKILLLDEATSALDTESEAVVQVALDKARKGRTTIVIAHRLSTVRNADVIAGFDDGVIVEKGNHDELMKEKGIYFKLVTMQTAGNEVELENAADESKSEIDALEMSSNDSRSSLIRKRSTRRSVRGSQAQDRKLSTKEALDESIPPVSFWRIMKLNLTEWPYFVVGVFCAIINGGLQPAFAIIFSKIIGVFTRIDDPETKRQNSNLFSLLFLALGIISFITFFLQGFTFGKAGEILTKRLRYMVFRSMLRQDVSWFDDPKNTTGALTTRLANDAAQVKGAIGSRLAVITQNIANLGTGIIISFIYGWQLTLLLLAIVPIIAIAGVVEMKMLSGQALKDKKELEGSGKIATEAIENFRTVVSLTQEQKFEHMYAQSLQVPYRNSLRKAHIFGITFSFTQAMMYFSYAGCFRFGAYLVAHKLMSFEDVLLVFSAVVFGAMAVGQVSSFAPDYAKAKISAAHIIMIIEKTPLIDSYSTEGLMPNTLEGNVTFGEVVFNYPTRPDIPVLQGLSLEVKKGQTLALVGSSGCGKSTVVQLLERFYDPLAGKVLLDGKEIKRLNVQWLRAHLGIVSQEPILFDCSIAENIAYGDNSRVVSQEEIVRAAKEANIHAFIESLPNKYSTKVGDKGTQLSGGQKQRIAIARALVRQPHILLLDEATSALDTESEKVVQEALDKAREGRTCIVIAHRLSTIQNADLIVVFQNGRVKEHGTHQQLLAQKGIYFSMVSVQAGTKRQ
Sequence of CYP3A4 (P08684 whole entry): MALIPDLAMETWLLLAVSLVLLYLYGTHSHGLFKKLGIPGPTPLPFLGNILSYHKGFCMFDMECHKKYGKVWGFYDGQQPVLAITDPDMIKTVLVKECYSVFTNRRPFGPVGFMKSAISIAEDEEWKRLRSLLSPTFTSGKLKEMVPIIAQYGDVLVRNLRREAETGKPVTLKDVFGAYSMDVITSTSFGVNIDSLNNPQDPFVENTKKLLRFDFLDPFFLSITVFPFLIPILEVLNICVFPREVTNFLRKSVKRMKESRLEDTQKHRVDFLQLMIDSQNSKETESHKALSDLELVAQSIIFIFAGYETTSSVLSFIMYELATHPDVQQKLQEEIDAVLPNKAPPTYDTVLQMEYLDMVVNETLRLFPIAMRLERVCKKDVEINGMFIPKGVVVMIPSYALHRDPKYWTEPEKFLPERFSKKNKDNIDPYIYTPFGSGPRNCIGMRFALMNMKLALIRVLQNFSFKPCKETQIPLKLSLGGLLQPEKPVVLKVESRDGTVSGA

CC(=O)N(CC(O)CO)c1c(I)c(C(=O)NCC(O)CO)c(I)c(C(=O)NCC(O)CO)c1I (stereo not shown) [iohexol, reference compound]
Mean iohexol PK parameters [1, 4]: similar
aGFR estimated using the Jødal and Brøchner Mortensen equation (iohexol) ([1]; metformin alone): 94.99 mL/min/1.73 m^2
aGFR estimated using the Jødal and Brøchner Mortensen equation (iohexol) ([1]; metformin plus tucatinib): 94.56 mL/min/1.73 m^2

Cc1ncc2n1-c1ccc(Cl)cc1C(c1ccccc1F)=NC2 [midazolam]
Geometric LS mean ratio (90% CI), AUC0-∞ (CYP3A4): 5.74 (5.05, 6.53)
Geometric LS mean ratio (90% CI), AUClast (CYP3A4): 5.30 (4.65, 6.04)
Geometric LS mean ratio (90% CI), Cmax (CYP3A4): 3.01 (2.63, 3.45)

OCc1ncc2n1-c1ccc(Cl)cc1C(c1ccccc1F)=NC2 [1-hydroxymidazolam]
Geometric LS mean ratio (90% CI), AUC0-∞ (CYP3A4): 1.02 (0.903, 1.16)
Geometric LS mean ratio (90% CI), AUClast (CYP3A4): 0.945 (0.848, 1.05)
Geometric LS mean ratio (90% CI), Cmax (CYP3A4): 0.593 (0.507, 0.694)
Geometric mean MRAUC0-∞, decreased by (CYP3A4): approximately 82.8%
Geometric mean MRCmax, decreased by (CYP3A4): ~80.4%

CCCCNC(=O)NS(=O)(=O)c1ccc(CO)cc1 [4-hydroxytolbutamide]
Geometric LS mean ratio (90% CI), AUC0-∞ (CYP2C9): 0.918 (0.880, 0.958)
Geometric LS mean ratio (90% CI), AUClast (CYP2C9): 0.900 (0.868, 0.934)
Geometric LS mean ratio (90% CI), Cmax (CYP2C9): 0.881 (0.831, 0.934)

C[C@H]1O[C@@H](O[C@H]2[C@@H](O)C[C@H](O[C@H]3[C@@H](O)C[C@H](O[C@H]4CC[C@@]5(C)[C@H](CC[C@@H]6[C@@H]5C[C@@H](O)[C@]5(C)[C@@H](C7=CC(=O)OC7)CC[C@]65O)C4)O[C@@H]3C)O[C@@H]2C)C[C@H](O)[C@@H]1O [digoxin]
Geometric LS mean ratio (90% CI), AUC0-∞ (P-gp): 1.46 (1.29, 1.66)
Geometric LS mean ratio (90% CI), AUClast (P-gp): 1.53 (1.35, 1.74)
Geometric LS mean ratio (90% CI), Cmax (P-gp): 2.35 (1.90, 2.90)

CCOc1cc(CC(=O)N[C@@H](CC(C)C)c2ccccc2N2CCCCC2)ccc1C(=O)O [repaglinide]
Geometric LS mean ratio (90% CI), AUC0-∞ (CYP2C8): 1.69 (1.51, 1.90)
Geometric LS mean ratio (90% CI), AUClast (CYP2C8): 1.72 (1.55, 1.91)
Geometric LS mean ratio (90% CI), Cmax (CYP2C8): 1.69 (1.37, 2.10)

CN(C)C(=N)N=C(N)N [metformin]
AUC (MATE1/2K [2]; oral): 11600 ng·h/mL
AUC (MATE1/2K [2]; oral, 850 mg): 8330 ng·h/mL
AUC(0-t) (MATE1/2K [2]; oral, 850 mg): 8150 ng·h/mL
Cmax (MATE1/2K [2]; oral, 850 mg): 1310 ng/mL
AUC(0-inf) (MATE1/2K [2]; po, 850 mg): 8610 ng·h/mL
AUC(0-t) (MATE1/2K [2]; po, 850 mg): 8420 ng·h/mL
Cmax (MATE1/2K [2]; po, 850 mg): 1330 ng/mL
Vd/F (MATE1/2K [2]; po, 850 mg): 695 L
Plasma metformin CL/F, arithmetic mean (CV %) (MATE1/2K [3]; Metformin + tucatinib 300 mg bid at steady state, Day 8, N = 17): 77.4 L/h
Plasma metformin CL/F, arithmetic mean (CV %) (MATE1/2K [3]; Metformin + tucatinib 300 mg bid at steady state, Day 8, N = 17, listed as Metformin): 77.4 (34.9) L/h
Plasma metformin CL/F, arithmetic mean (CV %) (MATE1/2K [3]; Metformin alone, 850 mg oral, Day 1, N = 17): 105.4 L/h
Plasma metformin CL/F, arithmetic mean (CV %) (MATE1/2K [3]; Metformin alone, 850 mg oral, Day 1, N = 17, listed as Metformin): 105.4 (26.7) L/h
AUC0-last, geometric least-squares (LS) mean (MATE1/2K [3]; [5]): 11054 ng·h/mL
Cmax, geometric least-squares (LS) mean (MATE1/2K [3]; [5]): 1418 ng/mL
Increase of arithmetic mean metformin AUC0-inf (MATE1/2K [3]; [4]): 1.409 fold
Increase of arithmetic mean metformin AUC0-last (MATE1/2K [3]; [4]): 1.376 fold
Increase of arithmetic mean metformin Cmax (MATE1/2K [3]; [4]): 1.102 fold
